Experimental data: patent publication US20240092835A1, “NOVEL PEPTIDES CAPABLE OF ALTERING NK CELL ACTIVITY” (Massachusetts Institute of Technology, priority 2022, published 2024)
Entries after “also recorded” stand apart in the source; their conditions may differ. Where no end group is shown, it is not given here.

Key:
[1] = test system: NKG2A+/NKG2C− NK cells; assay: NK cell activation markers in NKG2A+/NKG2C- NK cells incubated with peptide and K562 expressing HLA-E (inhibition); assay type: cell-based, human; conditions: for effect on NKG2A+/NKG2C− NK cell inhibition (in words): K562 expressing HLA-E, CD107a, IFNG, TNF, CCL3; for percentage of CCL3+ NK cells / percentage of CD107a+ NK cells / percentage of IFNG+ NK cells / percentage of TNF+ NK cells: NKG2A+/NKG2C- NK cells, K562/HLA-E
Summary of the method: (§1)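 HLA-E-expressing K562 cells incubated with peptides from human or human cytomegalovirus proteomes, then with NK cell subsets sorted by NKG2A/NKG2C status. Read-out is percent of cells positive for surface markers; a rise indicates activation, a fall inhibition.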

[2] = test system: NKG2A−/NKG2C+ NK cells; assay: NK cell activation markers in NKG2A-/NKG2C+ NK cells incubated with peptide and K562 expressing HLA-E (activation); assay type: cell-based, human; conditions: for effect on NKG2A−/NKG2C+ NK cell activation (in words): K562 expressing HLA-E, CD107a, IFNG, TNF, CCL3; for percentage of CCL3+ NK cells / percentage of CD107+ NK cells / percentage of IFNG+ NK cells / percentage of TNF+ NK cells: NKG2A-/NKG2C+ NK cells, K562/HLA-E
Summary of the method: as §1

[3] = test system: NKG2A−/NKG2C− NK cells; assay: NK cell activation markers in control NKG2A-/NKG2C- NK cells incubated with peptide and K562 expressing HLA-E; assay type: cell-based, human
Summary of the method: as §1

[4] = target: T1, HLA-E (Homo sapiens, UniProt P13747); assay: HLA-E surface stabilization assay with RMA-S/HLA-E cells; assay type: cell-based; conditions: 30 μM peptide, 16 hours; for HLA-E surface expression stability (GeoMFI): anti-HLA-E antibody
T1 construct: expressed in transfected cells; host or cells: RMA-S/HLA-E cells (antigen processing-defective lymphoma cell line)
T1 sequence (P13747 22-358): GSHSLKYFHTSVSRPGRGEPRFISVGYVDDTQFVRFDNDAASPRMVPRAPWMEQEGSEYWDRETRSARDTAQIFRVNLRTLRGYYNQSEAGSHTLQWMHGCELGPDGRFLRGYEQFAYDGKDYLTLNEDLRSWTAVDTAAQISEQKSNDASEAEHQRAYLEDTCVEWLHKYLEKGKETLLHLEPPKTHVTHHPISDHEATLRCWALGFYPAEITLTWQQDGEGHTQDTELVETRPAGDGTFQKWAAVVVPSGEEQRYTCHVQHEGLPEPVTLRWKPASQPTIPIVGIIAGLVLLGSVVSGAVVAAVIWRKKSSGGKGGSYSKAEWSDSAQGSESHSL
T1 sequence (P61769 21-119 partner): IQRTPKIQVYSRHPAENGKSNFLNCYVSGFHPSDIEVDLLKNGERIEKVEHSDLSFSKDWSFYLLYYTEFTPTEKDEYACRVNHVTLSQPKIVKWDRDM
Procedure: HLA-E surface expression was assessed by measuring geometric mean fluorescence intensity (GeoMFI) in RMA-S cells following immunofluorescence staining with an anti-HLA-E antibody (Table 14). Increased GeoMFI was indicative of increased HLA-E surface expression stability following novel peptide exposures (FIG. 3).

Question: How did the “effect on NKG2A+/NKG2C− NK cell inhibition (in words)” value ([1]; listed as SEQ ID NO. 7) turn out when QMPSRSLLF [human1, QMPSRSLLF] was run?
Answer: mild inhibitory effects

Question: And the “effect on NKG2A+/NKG2C− NK cell inhibition (in words)” value ([1]; listed as h1)?
Answer: mild inhibitory effects; also recorded: strong inhibitory

Question: And the “percentage of CCL3+ NK cells” value ([1]; Trial 1)?
Answer: 31.8%

Question: What about the “percentage of CD107a+ NK cells” value ([1]; Trial 1) of the same sequence?
Answer: 15.3%

Question: And the “percentage of IFNG+ NK cells” value ([1]; Trial 1)?
Answer: 4.26%

Question: And the “percentage of TNF+ NK cells” value ([1]; Trial 1)?
Answer: 1.66%

Question: What about the “percentage of CCL3+ NK cells” value ([1]; Trial 2) of the same sequence?
Answer: 47%

Question: What about the “percentage of CD107a+ NK cells” value ([1]; Trial 2) of the same sequence?
Answer: 25.7%

Question: What about the “percentage of IFNG+ NK cells” value ([1]; Trial 2) of the same sequence?
Answer: 9.68%

Question: And the “percentage of TNF+ NK cells” value ([1]; Trial 2)?
Answer: 3.94%

Question: What about the “percentage of CCL3+ NK cells” value ([1]; Trial 3) of the same sequence?
Answer: 28.8%

Question: What about the “percentage of CD107a+ NK cells” value ([1]; Trial 3) of the same sequence?
Answer: 28.5%

Question: What about the “percentage of IFNG+ NK cells” value ([1]; Trial 3) of the same sequence?
Answer: 15.5%

Question: What about the “percentage of TNF+ NK cells” value ([1]; Trial 3) of the same sequence?
Answer: 9.23%

Question: And the “percentage of CCL3+ NK cells” value ([1]; Trial 4)?
Answer: 14.2%

Question: And the “percentage of CD107a+ NK cells” value ([1]; Trial 4)?
Answer: 14.6%

Question: And the “percentage of IFNG+ NK cells” value ([1]; Trial 4)?
Answer: 3.06%

Question: And the “percentage of TNF+ NK cells” value ([1]; Trial 4)?
Answer: 2.61%

Question: And the “percentage of CCL3+ NK cells” value ([1]; Trial 5)?
Answer: 25.5%

Question: What about the “percentage of CD107a+ NK cells” value ([1]; Trial 5) of the same sequence?
Answer: 9.4%

Question: What about the “percentage of IFNG+ NK cells” value ([1]; Trial 5) of the same sequence?
Answer: 2.48%

Question: What about the “percentage of TNF+ NK cells” value ([1]; Trial 5) of the same sequence?
Answer: 1.56%

Question: And the “percentage of CCL3+ NK cells” value ([1]; Trial 6)?
Answer: 16.6%

Question: And the “percentage of CD107a+ NK cells” value ([1]; Trial 6)?
Answer: 13.3%

Question: And the “percentage of IFNG+ NK cells” value ([1]; Trial 6)?
Answer: 2.26%

Question: What about the “percentage of TNF+ NK cells” value ([1]; Trial 6) of the same sequence?
Answer: 1.77%

Question: What about the “effect on NKG2A−/NKG2C+ NK cell activation (in words)” value ([2]; listed as SEQ ID NO. 7) of the same sequence?
Answer: strong activating effects

Question: What about the “effect on NKG2A−/NKG2C+ NK cell activation (in words)” value ([2]; listed as h1) of the same sequence?
Answer: strong inhibitory and activating effects

Question: And the “percentage of CCL3+ NK cells” value ([2]; Trial 1)?
Answer: 78.3%

Question: And the “percentage of CD107+ NK cells” value ([2]; Trial 1)?
Answer: 74.8%

Question: What about the “percentage of IFNG+ NK cells” value ([2]; Trial 1) of the same sequence?
Answer: 62.6%

Question: What about the “percentage of TNF+ NK cells” value ([2]; Trial 1) of the same sequence?
Answer: 51.1%

Question: What about the “percentage of CCL3+ NK cells” value ([2]; Trial 2) of the same sequence?
Answer: 91.5%

Question: And the “percentage of CD107+ NK cells” value ([2]; Trial 2)?
Answer: 87.4%

Question: What about the “percentage of IFNG+ NK cells” value ([2]; Trial 2) of the same sequence?
Answer: 84.1%

Question: And the “percentage of TNF+ NK cells” value ([2]; Trial 2)?
Answer: 75.2%

Question: And the “percentage of CCL3+ NK cells” value ([2]; Trial 3)?
Answer: 86.6%

Question: What about the “percentage of CD107+ NK cells” value ([2]; Trial 3) of the same sequence?
Answer: 87%

Question: And the “percentage of IFNG+ NK cells” value ([2]; Trial 3)?
Answer: 80.5%

Question: And the “percentage of TNF+ NK cells” value ([2]; Trial 3)?
Answer: 72.9%

Question: What about the “percentage of CCL3+ NK cells” value ([2]; Trial 4) of the same sequence?
Answer: 68.1%

Question: What about the “percentage of CD107+ NK cells” value ([2]; Trial 4) of the same sequence?
Answer: 68.2%

Question: And the “percentage of IFNG+ NK cells” value ([2]; Trial 4)?
Answer: 58.1%

Question: What about the “percentage of TNF+ NK cells” value ([2]; Trial 4) of the same sequence?
Answer: 51.6%

Question: And the “percentage of CCL3+ NK cells” value ([2]; Trial 5)?
Answer: 79.1%

Question: What about the “percentage of CD107+ NK cells” value ([2]; Trial 5) of the same sequence?
Answer: 75.8%

Question: What about the “percentage of IFNG+ NK cells” value ([2]; Trial 5) of the same sequence?
Answer: 66.9%

Question: What about the “percentage of TNF+ NK cells” value ([2]; Trial 5) of the same sequence?
Answer: 64%

Question: And the “percentage of CCL3+ NK cells” value ([2]; Trial 6)?
Answer: 61.1%

Question: And the “percentage of CD107+ NK cells” value ([2]; Trial 6)?
Answer: 57.6%

Question: What about the “percentage of IFNG+ NK cells” value ([2]; Trial 6) of the same sequence?
Answer: 46.7%

Question: What about the “percentage of TNF+ NK cells” value ([2]; Trial 6) of the same sequence?
Answer: 38.8%

Question: And the “percentage CCL3+ NK cells” value ([3]; Trial 1)?
Answer: 37%

Question: What about the “percentage CD107+ NK cells” value ([3]; Trial 1) of the same sequence?
Answer: 25.1%

Question: What about the “percentage TNF+ NK cells” value ([3]; Trial 1) of the same sequence?
Answer: 4.84%

Question: And the “percentage of IFNG+ NK cells” value ([3]; Trial 1)?
Answer: 16.2%

Question: And the “percentage CCL3+ NK cells” value ([3]; Trial 2)?
Answer: 59.6%

Question: And the “percentage CD107+ NK cells” value ([3]; Trial 2)?
Answer: 37.6%

Question: And the “percentage TNF+ NK cells” value ([3]; Trial 2)?
Answer: 11.3%

Question: And the “percentage of IFNG+ NK cells” value ([3]; Trial 2)?
Answer: 29.3%

Question: And the “percentage CCL3+ NK cells” value ([3]; Trial 3)?
Answer: 51.3%

Question: What about the “percentage CD107+ NK cells” value ([3]; Trial 3) of the same sequence?
Answer: 47.2%

Question: What about the “percentage TNF+ NK cells” value ([3]; Trial 3) of the same sequence?
Answer: 19%

Question: And the “percentage of IFNG+ NK cells” value ([3]; Trial 3)?
Answer: 38.5%

Question: What about the “percentage CCL3+ NK cells” value ([3]; Trial 4) of the same sequence?
Answer: 33.1%

Question: And the “percentage CD107+ NK cells” value ([3]; Trial 4)?
Answer: 29.5%

Question: And the “percentage TNF+ NK cells” value ([3]; Trial 4)?
Answer: 9.26%

Question: And the “percentage of IFNG+ NK cells” value ([3]; Trial 4)?
Answer: 18.6%

Question: And the “percentage CCL3+ NK cells” value ([3]; Trial 5)?
Answer: 26%

Question: And the “percentage CD107+ NK cells” value ([3]; Trial 5)?
Answer: 19.8%

Question: What about the “percentage TNF+ NK cells” value ([3]; Trial 5) of the same sequence?
Answer: 6.91%

Question: And the “percentage of IFNG+ NK cells” value ([3]; Trial 5)?
Answer: 15.9%

Question: What about the “percentage CCL3+ NK cells” value ([3]; Trial 6) of the same sequence?
Answer: 24.1%

Question: And the “percentage CD107+ NK cells” value ([3]; Trial 6)?
Answer: 18.8%

Question: And the “percentage TNF+ NK cells” value ([3]; Trial 6)?
Answer: 3.78%

Question: And the “percentage of IFNG+ NK cells” value ([3]; Trial 6)?
Answer: 7.82%

Question: And the “HLA-E surface expression stabilization strength (in words)” value [4]?
Answer: moderate

Question: And the “HLA-E surface expression stability (GeoMFI)” value ([4]; Trial 1)?
Answer: 2461 GeoMFI

Question: What about the “HLA-E surface expression stability (GeoMFI)” value ([4]; Trial 2) of the same sequence?
Answer: 1755 GeoMFI

Question: What about the “HLA-E surface expression stability (GeoMFI)” value ([4]; Trial 3) of the same sequence?
Answer: 2273 GeoMFI

Question: What about the “HLA-E surface expression stability (GeoMFI)” value ([4]; Trial 4) of the same sequence?
Answer: 2496 GeoMFI

Question: And the “HLA-E surface expression stabilization strength, approximate GeoMFI” value ([4]; approximate value)?
Answer: approximately 2×10^3 GeoMFI
